IC50 data for five compounds are collected here from BindingDB's records for doi:10.1021/np970367q (Seoul National University, 1998).

The nature of this assay: Inhibition of bovine brain PI-PLCgamma1 at 125 ug/mL.
The term IC50 denotes the point on the concentration scale where inhibition reaches its midpoint. Higher therefore signals weaker potency in that assay. `CCCCCCCCCCCCCCCc1cccc(O)c1` [3-pentadecylphenol] showed a half-inhibitory concentration (IC50) of 92.6 µM.

As to `CCCCCCCCCCCCCc1cccc(O)c1` [3-tridecyl phenol], 88 µM corresponded to half-maximal inhibition (IC50). This IC50 and that of the compound before are within 1.5-fold of each other.

`CCCCCC/C=C\CCCCCCCc1cccc(O)c1C(=O)O` [6-{8(Z)-pentadecenyl}salicylic acid] yielded an IC50 of 76.3 µM.

Turning to `CCCCCC/C=C\CCCCCCCCCc1cccc(O)c1` [3-[10'(Z)-heptadecenyl]phenol], the IC50 is 95 µM.

`CCCCCC/C=C\CCCCCCCCCc1cccc(O)c1C(=O)O` [6-[10'(Z)-heptade-cenyljsalicylic acid] returned an IC50 of 74 µM.
